We go through three molecules from US8003124B2, “Sustained release implants and methods for subretinal delivery of bioactive agents to treat or prevent retinal disease” (Surmodics, Inc., priority 2005, dated 2011).

A short description of data set [1]: In vivo elution: TA by HPLC in eye tissues, aqueous and blood after subretinal PCL/TA 60:40 implant. The following applies: four weeks after subretinal PCL/TA 60:40 implant, rabbit.
A further data set concerns rabbit eye. To be noted: in vivo.
For data set [2] the following is noted: three days following an injection; cited from earlier work.

Procedure for rabbit eye: Pupils were fully dilated before implantation with 1 drop each of cyclopentolate hydrochloride 1% (Bausch & Lomb, Rochester, N.Y.) and phenylephrine hydrochloride 5% (Bausch & Lomb). […] A periocular surgical prep was performed by swabbing the area using a 1:10 dilution of povidone iodine in saline. The surface of the eye was prepped with a 1:20 dilution of povidone iodine in saline. The rabbit was positioned under the operating microscope and draped. A wire lid speculum was placed.
A two-port core vitrectomy was performed, with illumination provided by the operating microscope (Carl Zeiss Ophthalmic Systems, Inc.). […] The feathered shape and semi-rigid structure of the implant allowed easy insertion. […] At the conclusion of surgery, a subconjunctival injection of antibiotic, 0.1 cc of 40 mg/ml gentamycin (Phoenix Scientific, St. Joseph, Mo.) and 0.1 cc of 2 mg/ml dexamethasone (Phoenix Scientific) was administered away from the surgery site. […]
Complete ophthalmic examinations using indirect ophthalmoscopy and a 20-diopter lens (Vantage Indirect Ophthalmoscope, Keeler Ltd., Windsor, England) were performed at baseline and 1, 2, and 4 weeks postoperatively. […] The lens was inspected for cataract formation and further evaluated with respect to any lens touch that may have occurred during the implantation.

As for `CC1(C)O[C@@H]2C[C@H]3[C@@H]4CCC5=CC(=O)C=C[C@]5(C)[C@@]4(F)[C@@H](O)C[C@]3(C)[C@]2(C(=O)CO)O1` [TA, Triamcinolone acetonide], in data set [1], the “TA in the anterior structures (HPLC)” value is “not detected” and the “TA in the blood (HPLC)” value is listed as “not detected”. Moreover, the “TA in the posterior tissue samples (HPLC)” value in data set [1] (qualitative, FIG. 9) is given as “confirmed the presence”.
As for `CO[C@H]1C[C@@H]2CC[C@@H](C)[C@@](O)(O2)C(=O)C(=O)N2CCCC[C@H]2C(=O)O[C@H]([C@H](C)C[C@@H]2CC[C@@H](O)[C@H](OC)C2)CC(=O)[C@H](C)/C=C(\C)[C@@H](O)[C@@H](OC)C(=O)[C@H](C)C[C@H](C)/C=C/C=C/C=C/1C` [rapamycin], the “biocompatibility / toxicity, clinical examinations” value in the data set on rabbit eye is listed as “may be toxic to the rabbit eye at the current doses”.
Take `C[C@]12C=CC(=O)C=C1CC[C@H]1[C@@H]3C[C@@H](O)[C@](O)(C(=O)CO)[C@@]3(C)C[C@H](O)[C@@]12F` [triamcinolone]: the “share of the triamcinolone present in the vitreous associated with other tissues including the retina, pigment epithelium, and sclera” value in data set [2] is on record as “less than 1%”.
